Activity calls are given as the source filed them.
Columns and labels:
cells = assay type: functional, cell-based
[1] = HepG2 cell cytotoxicity, dose response, cytotoxicity control for Shn3 inhibitor project, CellTiter-Glo, cherry-picked (AID 624134); assay type: functional, cell-based
HEK293 [2] = test: cytotoxicity in HEK293T NF-kB-Luc cells, SAR follow-up, cytotoxicity control for NF-kB activator project, cell-based, resazurin fluorescence (AID 493251); assay type: functional; details: Homo sapiens
[3] = control 3'UTR Renilla luciferase suppression, dose response, counter-screen for Shn3 inhibitor project, cell-based, Clone20-Shn3RL, cherry-picked (AID 624133); assay type: functional
Jurkat = test: SAR Analysis of small molecule inhibitors of T-cell specific antigen receptor-induced NF-kB activation in a Jurkat cell line using a luminescence assay - Set 2. [Related pubchem assays (depositor defined):AID435003, AID435012, AID465]; assay type: functional, cell-based; details: Homo sapiens
[4] = Luminescence Cell-Based Dose Retest to Confirm Inhibitors of Cancer Stem Cells. [Related pubchem assays (depositor defined):AID2717, AID2721]; assay type: functional; details: Homo sapiens
Caspase-3 = target: T1, Caspase-3 (Homo sapiens, UniProt P42574); test: procaspase-3 activators, dose response, biochemical, absorbance (AID 489014)
T1 sequence (P42574 whole entry): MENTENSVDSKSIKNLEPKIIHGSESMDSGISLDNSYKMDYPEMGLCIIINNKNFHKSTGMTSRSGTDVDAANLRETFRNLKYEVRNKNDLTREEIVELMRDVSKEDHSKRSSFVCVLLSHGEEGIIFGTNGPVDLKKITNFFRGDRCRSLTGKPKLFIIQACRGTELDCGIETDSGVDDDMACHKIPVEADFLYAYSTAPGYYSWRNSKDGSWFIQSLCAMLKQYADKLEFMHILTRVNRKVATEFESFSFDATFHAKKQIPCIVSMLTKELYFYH

Insulin-degrading enzyme [5] = target: T2, Insulin-degrading enzyme (Homo sapiens, UniProt P14735); test: activators of recombinant IDE enzyme, dose response, counter-screen for IDE activator project, biochemical, fluorescence polarization (AID 588681)
T2 sequence (P14735 whole entry): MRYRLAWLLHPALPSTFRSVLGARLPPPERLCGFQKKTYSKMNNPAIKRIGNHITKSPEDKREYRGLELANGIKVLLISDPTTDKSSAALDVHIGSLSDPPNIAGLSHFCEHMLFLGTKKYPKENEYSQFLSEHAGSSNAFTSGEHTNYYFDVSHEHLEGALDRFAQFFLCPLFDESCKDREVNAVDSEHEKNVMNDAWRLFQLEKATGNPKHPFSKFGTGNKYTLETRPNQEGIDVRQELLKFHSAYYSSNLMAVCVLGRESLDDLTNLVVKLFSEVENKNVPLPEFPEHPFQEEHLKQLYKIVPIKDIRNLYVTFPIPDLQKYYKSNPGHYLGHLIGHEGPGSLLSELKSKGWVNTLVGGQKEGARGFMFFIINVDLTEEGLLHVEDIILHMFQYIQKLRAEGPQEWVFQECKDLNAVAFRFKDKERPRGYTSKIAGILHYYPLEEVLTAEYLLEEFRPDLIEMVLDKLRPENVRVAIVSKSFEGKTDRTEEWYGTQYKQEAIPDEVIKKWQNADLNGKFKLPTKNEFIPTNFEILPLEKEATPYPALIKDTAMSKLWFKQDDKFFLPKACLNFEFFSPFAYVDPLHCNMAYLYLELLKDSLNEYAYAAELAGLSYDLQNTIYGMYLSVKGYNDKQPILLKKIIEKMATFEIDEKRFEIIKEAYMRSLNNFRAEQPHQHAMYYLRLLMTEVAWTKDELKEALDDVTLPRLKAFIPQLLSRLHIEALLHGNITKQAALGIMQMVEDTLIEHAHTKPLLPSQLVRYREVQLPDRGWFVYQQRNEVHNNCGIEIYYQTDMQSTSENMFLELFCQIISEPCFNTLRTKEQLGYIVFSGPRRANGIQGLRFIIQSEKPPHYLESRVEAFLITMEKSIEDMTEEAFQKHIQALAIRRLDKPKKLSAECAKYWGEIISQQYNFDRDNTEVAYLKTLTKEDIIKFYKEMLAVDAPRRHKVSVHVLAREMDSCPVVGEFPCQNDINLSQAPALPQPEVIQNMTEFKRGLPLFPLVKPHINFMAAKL

Insulin-degrading enzyme [6] = target: T2, Insulin-degrading enzyme; test: activators of endogenous IDE in HEK cells, dose response, cell-based, fluorescence polarization (AID 588439); assay type: functional
HEK293 [7] = test: optical interference in Abeta FP readout, dose response, artefact control for IDE activator project, biochemical, fluorescence polarization (AID 588442); assay type: functional, cell-based; details: Homo sapiens
HEK293 [8] = test: HEK cell cytotoxicity by LDH release, dose response, cytotoxicity control for IDE activator project, fluorescence, HEK cells (AID 588440); assay type: functional, cell-based; details: Homo sapiens;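 also: cytotoxicity by LDH release measuring loss of membrane integrity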
[9] = target: Histone-lysine N-methyltransferase NSD2 (Homo sapiens, UniProt O96028); assay type: biochemical
Chain of Histone-lysine N-methyltransferase NSD2 (O96028 whole entry): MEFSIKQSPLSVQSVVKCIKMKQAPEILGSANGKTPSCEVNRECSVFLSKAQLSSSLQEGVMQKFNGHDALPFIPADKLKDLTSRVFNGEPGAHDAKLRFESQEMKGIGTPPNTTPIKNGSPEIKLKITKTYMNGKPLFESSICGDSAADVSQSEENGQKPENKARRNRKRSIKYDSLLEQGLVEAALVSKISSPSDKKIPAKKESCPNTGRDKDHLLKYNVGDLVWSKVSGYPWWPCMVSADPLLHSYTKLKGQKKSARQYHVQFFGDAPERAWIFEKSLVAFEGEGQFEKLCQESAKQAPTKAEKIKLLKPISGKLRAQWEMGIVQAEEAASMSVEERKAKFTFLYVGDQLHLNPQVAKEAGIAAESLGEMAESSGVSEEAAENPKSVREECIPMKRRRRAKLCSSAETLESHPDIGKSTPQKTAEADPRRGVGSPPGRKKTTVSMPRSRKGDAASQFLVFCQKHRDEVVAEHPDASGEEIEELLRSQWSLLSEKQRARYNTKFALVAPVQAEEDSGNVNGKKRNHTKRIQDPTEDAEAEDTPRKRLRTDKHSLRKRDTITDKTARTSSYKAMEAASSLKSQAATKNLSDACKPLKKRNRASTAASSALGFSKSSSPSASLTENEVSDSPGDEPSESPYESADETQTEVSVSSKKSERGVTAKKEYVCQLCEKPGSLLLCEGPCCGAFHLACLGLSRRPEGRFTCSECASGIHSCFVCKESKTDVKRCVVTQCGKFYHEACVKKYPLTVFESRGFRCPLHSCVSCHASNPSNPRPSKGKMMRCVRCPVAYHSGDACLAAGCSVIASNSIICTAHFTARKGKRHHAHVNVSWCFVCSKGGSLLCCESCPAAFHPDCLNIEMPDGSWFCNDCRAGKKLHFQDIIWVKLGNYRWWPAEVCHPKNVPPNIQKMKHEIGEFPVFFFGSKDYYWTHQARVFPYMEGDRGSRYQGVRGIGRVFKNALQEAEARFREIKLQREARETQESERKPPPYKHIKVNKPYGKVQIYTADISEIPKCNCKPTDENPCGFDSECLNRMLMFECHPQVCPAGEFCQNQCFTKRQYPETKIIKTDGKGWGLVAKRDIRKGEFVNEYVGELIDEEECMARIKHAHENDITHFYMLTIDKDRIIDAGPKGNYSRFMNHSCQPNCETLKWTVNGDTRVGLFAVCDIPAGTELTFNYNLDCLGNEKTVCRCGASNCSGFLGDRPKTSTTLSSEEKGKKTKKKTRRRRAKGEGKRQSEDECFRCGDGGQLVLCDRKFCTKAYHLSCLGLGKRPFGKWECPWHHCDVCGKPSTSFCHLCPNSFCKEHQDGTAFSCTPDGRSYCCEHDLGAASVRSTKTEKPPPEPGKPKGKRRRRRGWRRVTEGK

SMILES: CCCCC(=O)NC(c1ccc(Cl)cc1)c1ccc2cccnc2c1O (configuration not stated)
- EC50 (cells): 3.81 µM (active)
- AC50 [1]: 1.71 µM (active)
- IC50 (HEK293 [2]): 23.3 µM (inactive)
- AC50 [3]: 0.909 µM (active)
- IC50 (Jurkat): 5.28 µM (active)

SMILES: CCCCC(=O)NC(c1ccco1)c1cc(Cl)c2cccnc2c1O (configuration not stated)
- AC50 [4]: 3.33 µM (active)

SMILES: O=C(N/N=C/c1ccccc1O)/C(O)=C\C1=NC2(CCCC2)Cc2ccccc21
- EC50 (Caspase-3): > 85.3 µM (inactive)

SMILES: COc1ccc2noc3c2c1C(=O)c1ccccc1-3
- EC50 (Insulin-degrading enzyme [5]): > 54.7 µM (inactive)
- EC50 (Insulin-degrading enzyme [6]): > 54.7 µM (inactive)
- EC50 (HEK293 [7]): > 54.7 µM (inactive)
- IC50 (HEK293 [8]): > 89.2 µM (inactive)
- AC50 [9]: > 20 µM (inactive)
